Structures can show the parent of a compound that is named as a salt.
Biological target: T1, Human coagulation factor (F)XI (Homo sapiens, UniProt P03951)
T1 construct: purchased Haematologic Technologies Inc. (FXI); Enzyme Research Laboratories (FXIIa) HCXI-150 (FXI); HFXIIa (FXIIa)
Assay: Inhibition of FXIIa mediated activation of FXI (activation of human Factor XI to XIa by human Factor α-XIIa)
Type: biochemical
Details: human FXI pre-incubated with compound 30 min at 22° C., activation by human FXIIa 60 min, z-GPR-AFC substrate, fluorescence 405/510 nm, 4 parameter logistic fit; read-out: Inhibition of FXIIa meditated activation of FXI
Method: Inhibition of FXIIa Mediated Activation of FXI
Activation of Human Factor XI to XIa by Human Factor α-XIIa
Assay was performed in 50 mM HEPES, 150 mM NaCl, 5 mM CaCl2, 0.1% PEG-8000, pH 7.4 buffer in black, flat-bottom, polystyrene microplates (Corning, Cat #3573). Serial dilutions (10-point, 3.333-fold) of the test compounds delivered as 10 mM DMSO stocks were prepared in the Labcyte Echo-qualified PP 384 well microplates (Labcyte, Cat #P-05525). Human coagulation factor (F)XI (Haematologic Technologies Inc., Cat #HCXI-150, concentration 46 nM, 19.5 uL) was pre-incubated with 0.5 uL of the test compounds for 30 min at 22° C. The activation was initiated by addition of 10 uL of human coagulation factor (F)XIIa (Enzyme Research Laboratories, Cat #HFXIIa, concentration 30 nM) and reaction proceeded for 60 min at 22° C., after which it was quenched by addition of a selective inhibitor of FXIIa (Compound 54 in WO2018093695) concentration 600 uM in DMSO, 1 uL). 10 min after the quench, 29 uL of z-GPR-AFC substrate (Sigma, Cat #C0980-10MG, concentration 200 uM) was added into each well and the detection reaction proceeded for 60 min at 22° C. Fluorescence at 405/510 nm was measured in end-point mode using an Envision plate-reader (Perkin Elmer). IDBS Activity Base XE (ABase) analysis using 4 parameter logistic fit was performed to determine Minimum, Maximum, EC50, and Slope Factor for each compound.

T1 sequence (P03951 19-625): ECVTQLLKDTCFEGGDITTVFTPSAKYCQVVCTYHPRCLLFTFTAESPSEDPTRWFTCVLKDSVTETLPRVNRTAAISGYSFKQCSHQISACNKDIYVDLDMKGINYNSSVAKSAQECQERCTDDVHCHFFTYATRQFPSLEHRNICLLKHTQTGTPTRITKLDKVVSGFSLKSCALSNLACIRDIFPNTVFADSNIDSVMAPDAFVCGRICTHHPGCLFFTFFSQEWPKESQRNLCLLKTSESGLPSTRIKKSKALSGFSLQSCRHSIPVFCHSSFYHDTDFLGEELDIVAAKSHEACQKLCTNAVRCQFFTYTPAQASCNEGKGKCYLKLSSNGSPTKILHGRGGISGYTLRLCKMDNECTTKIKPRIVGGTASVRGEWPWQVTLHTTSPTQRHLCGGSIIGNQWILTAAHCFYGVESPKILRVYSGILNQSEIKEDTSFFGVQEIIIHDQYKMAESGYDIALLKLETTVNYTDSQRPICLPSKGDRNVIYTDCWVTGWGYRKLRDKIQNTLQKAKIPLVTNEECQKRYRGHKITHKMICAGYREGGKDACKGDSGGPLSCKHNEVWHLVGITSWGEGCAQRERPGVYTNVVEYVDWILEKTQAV

| Structure (SMILES) | EC50 [nM] |
| --- | --- |
| Cc1cnc(C(=O)N2CCC(C#N)(c3ccccc3)CC2)cc1C(=O)N1CCC(C)(N2CCC(F)(F)C2)CC1 [Example 3, 1-(4-(4-(3,3-difluoropyrrolidin-1-yl)-4-methylpiperidine-1-carbonyl)-5-methylpicolinoyl)-4-phenylpiperidine-4-carbonitrile] | 61.8 |
| Cc1cnc(C(=O)N2CCC(C#N)(c3ccccc3)CC2)cc1C(=O)N1CC(c2cccc(F)c2)C1 [Example 4, 1-(4-(3-(3-fluorophenyl)azetidine-1-carbonyl)-5-methylpicolinoy1)-4-phenylpiperidine-4-carbonitrile] | 197 |
| Cc1cnc(C(=O)N2CCC(C#N)(c3ccccc3)CC2)cc1C(=O)N1CCC(CCc2ccccc2)CC1 [Example 6, 1-(5-methyl-4-(4-phenethylpiperidine-1-carbonyl)picolinoyl)-4-phenylpiperidine-4-carbonitrile] | 150 |
| Cc1cnc(C(=O)N2CCC(C#N)(c3ccccc3)CC2)cc1C(=O)N1CC(c2ccccc2)C1 [Example 8, 1-(5-methyl-4-(3-phenylazetidine-1-carbonyl)picolinoyl)-4-phenylpiperidine-4-carbonitrile] | 119 |
| Cc1cnc(C(=O)N2CCC(C#N)(c3ccccc3)CC2)cc1C(=O)N1CC(c2ccc(F)cc2)C1 [Example 9, 1-(4-(3-(4-fluorophenyl)azetidine-1-carbonyl)-5-methylpicolinoyl)-4-phenylpiperidine-4-carbonitrile] | 107 |
| Cc1cnc(C(=O)N2CCC(C#N)(c3ccccc3)CC2)cc1C(=O)N1CCC(Cc2ccccc2)CC1 [Example 10, 1-(4-(4-benzylpiperidine-1-carbonyl)-5-methylpicolinoyl)-4-phenylpiperidine-4-carbonitrile] | 74.1 |
| Cc1cnc(C(=O)N2CCC(C#N)(c3ccccc3)CC2)cc1C(=O)N1CCN(C2CCCC2)C(=O)C1 [Example 11, 1-(4-(4-cyclopentyl-3-oxopiperazine-1-carbonyl)-5-methylpicolinoyl)-4-phenylpiperidine-4-carbonitrile] | 164 |
| Cc1cnc(C(=O)N2CCC(C#N)(c3ccccc3)CC2)cc1C(=O)N1CC2CC(C1)C2(F)c1ccccc1 (stereo not drawn) [Example 12, 1-(4-(6-fluoro-6-phenyl-3-azabicyclo[3.1.1]heptane-3-carbonyl)-5-methylpicolinoyl)-4-phenylpiperidine-4-carbonitrile] | 137 |
| Cc1cnc(C(=O)N2CCC(C#N)(c3ccccc3)CC2)cc1C(=O)N1CC2CC(C1)C2c1ccccc1 (stereo not drawn) [Example 13, 1-(5-methyl-4-(6-phenyl-3-azabicyclo[3.1.1]heptane-3-carbonyl)picolinoyl)-4-phenylpiperidine-4-carbonitrile] | 66.7 |
| N#CC1(c2ccccc2)CCN(C(=O)c2cc(C(=O)N3CCC4c5ccccc5OC4C3)c(C(F)(F)F)cn2)CC1 (stereo not drawn) [Example 16, 1-(4-(1,2,3,4,4a,9a-hexahydrobenzofuro[2,3-c]pyridine-2-carbonyl)-5-(trifluoromethyl)picolinoyl)-4-phenylpiperidine-4-carbonitrile] | 106 |
| N#CC1(c2ccccc2)CCN(C(=O)c2cc(C(=O)N3CC(c4ccc(F)cc4)C3)c(C(F)(F)F)cn2)CC1 [Example 17, 1-(4-(3-(4-fluorophenyl)azetidine-1-carbonyl)-5-(trifluoromethyl)picolinoyl)-4-phenylpiperidine-4-carbonitrile] | 411 |
| COc1ccc2c(c1)OC1CN(C(=O)c3cc(C(=O)N4CCC(C#N)(c5ccccc5)CC4)ncc3C)CCC21 (stereo not drawn) [Example 21, 1-[4-(7-methoxy-3,4,4a,9a-tetrahydro-1H-benzofuro[2,3-c]pyridine-2-carbonyl)-5-methyl-pyridin-1-ium-2-carbonyl]-4-phenyl-piperidine-4-carbonitrile; 2,2,2-trifluoroacetate] | 199 |

The next compounds have a lower EC50 than those just listed; values first:

| EC50 [nM] | Structure (SMILES) |
| --- | --- |
| 49.3 | Cc1cnc(C(=O)N2CCC(C#N)(c3ccccc3)CC2)cc1C(=O)N1CCC2c3c(F)cc(F)cc3OC2C1 (stereo not drawn) [Example 19, 1-(4-(5,7-difluoro-1,2,3,4,4a,9a-hexahydrobenzofuro[2,3-c]pyridine-2-carbonyl)-5-methylpicolinoyl)-4-phenylpiperidine-4-carbonitrile] |
| 45.1 | Cc1cnc(C(=O)N2CCC(C#N)(c3ccccc3)CC2)cc1C(=O)N1CCC2c3cc(F)ccc3OC2C1 (stereo not drawn) [Example 14, 1-(4-(6-fluoro-1,2,3,4,4a,9a-hexahydrobenzofuro[2,3-c]pyridine-2-carbonyl)-5-methylpicolinoyl)-4-phenylpiperidine-4-carbonitrile] |
| 43.5 | Cc1cnc(C(=O)N2CCC(C#N)(c3ccccc3)CC2)cc1C(=O)N(CCC1(O)CCCC1)C1CCC1 [Example 7, 2-(4-cyano-4-phenylpiperidine-1-carbonyl)-N-cyclobutyl-N-(2-(1-hydroxycyclopentyl)ethyl)-5-methylisonicotinamide] |
| 42.5 | CC(C)(C)C1CCN(C(=O)c2cc(C(=O)N3CCC(C#N)(c4ccccc4)CC3)ncc2C2CC2)CC1 [Example 15, 1-(4-(4-(tert-butyl)piperidine-1-carbonyl)-5-cyclopropylpicolinoyl)-4-phenylpiperidine-4-carbonitrile, 2,2,2-trifluoroacetate salt] |
| 42 | Cc1cnc(C(=O)N2CCC(C#N)(c3ccccc3)CC2)cc1C(=O)N1CCC(N2CCC(F)(F)C2)CC1 [Example 1, 1-(4-(4-(3,3-difluoropyrrolidin-1-yl)piperidine-1-carbonyl)-5-methylpicolinoyl)-4-phenylpiperidine-4-carbonitrile, 2,2,2-trifluoroacetate salt] |
| 40 | N#CC1(c2ccccc2)CCN(C(=O)c2cc(C(=O)N3CCC(N4CCC(F)(F)C4)CC3)c(C(F)(F)F)cn2)CC1 [Example 18, 1-[4-[4-(3,3-difluoropyrrolidin-1-ium-1-yl)piperidine-1-carbonyl]-5-(trifluoromethyl)pyridine-2-carbonyl]-4-phenyl-piperidine-4-carbonitrile; 2,2,2-trifluoroacetate] |
| 39.4 | Cc1cnc(C(=O)N2CCC(C#N)(c3ccccc3)CC2)cc1C(=O)N1CC[C@@H]2c3ccccc3O[C@@H]2C1 (racemic) [Example 2, 1-(4-((4aR,9aS)-1,2,3,4,4a,9a-hexahydrobenzofuro[2,3-c]pyridine-2-carbonyl)-5-methylpicolinoyl)-4-phenylpiperidine-4-carbonitrile and 1-(4-((4aS,9aR)-1,2,3,4,4a,9a-hexahydrobenzofuro[2,3-c]pyridine-2-carbonyl)-5-methylpicolinoyl)-4-phenylpiperidine-4-carbonitrile] |
| 37.1 | Cc1cnc(C(=O)N2CCC(C#N)(c3ccccc3)CC2)cc1C(=O)N1CCC2c3ccc(F)cc3OC2C1 (stereo not drawn) [Example 20, 1-[4-(7-fluoro-3,4,4a,9a-tetrahydro-1H-benzofuro[2,3-c]pyridine-2-carbonyl)-5-methyl-pyridin-1-ium-2-carbonyl]-4-phenyl-piperidine-4-carbonitrile; 2,2,2-trifluoroacetate] |
| 30.4 | Cc1cnc(C(=O)N2CCC(C#N)(c3ccccc3)CC2)cc1C(=O)N1CCC(c2ccccc2)CC1 [Example 5, 1-(5-methyl-4-(4-phenylpiperidine-1-carbonyl)picolinoyl)-4-phenylpiperidine-4-carbonitrile] |
